In patent publication US8158389B2, “Products and methods for in vivo secretion of monatin” (priority 2005, dated 2012):

Tests used:
Format in all cases: cell-based, Escherichia coli
[1] = system: E. coli MG1655::aspCproApProNde (control); test: AcrAB k.o. validation: growth (OD 600 nm) with novobiocin / sodium decanoate, control strain; details: sodium decanoate 2.5 mM; novobiocin 0 ppm
Method: Single chloramphenicol-resistant colonies were purified by restreaking on appropriate selective media and single colonies were tested by PCR as previously described for the BW25113 knockout strains, to verify the presence of the emrB and acrAB knockouts. The effects of the emrB and acrAB knockouts on the EmrAB and AcrAB transporter systems respectively were determined by assessing the phenotype of the transport mutants using appropriate antibiotics and comparison to wild type control microorganisms as shown in Table 3.1 and Table 3.2 below.

E. coli MG1655 = test: Monatin excretion with 2.5 mM sodium decanoate, E. coli MG1655 strains with pUC19, robA or ramA (30, 48 h)
Text: The strains used for the experiment included E. coli MG1655 : : aspC/proA/pProNdeDel together with the robA gene from E. coli cloned into the pUC19 vector. The control strain was E. coli MG1655 : : aspC/proA/pProNde along with the pUC19 vector. The robA gene was amplified from E. coli W3110 using primers 5′[…]3′ (SEQ ID NO. 20) and 5′[…]3′ (SEQ ID NO. 21), which introduced SalI and BamHI sites at the end of the amplified fragment. The PCR fragment was cloned between the SalI and BamHI sites of the vector pUC19 (GenBank/EMBL accession number L09137). For inoculum, the E. coli strains were grown overnight at 37° C. and 250 rpm in Luria-Bertani (“LB”) medium with 100 μg/mL ampicillin and 50 μg/mL kanamycin.
For the experimental treatments, Trp-1+glucose medium, a minimal medium that has been used for increased production of tryptophan in E. coli cells (Zeman et al. Folia Microbiol. 35:200-204, (1990)), was prepared as follows. To 800 mL nanopure water the following reagents were added: 2 g (NH4)2SO4 and 13.6 g KH2PO4. The pH was adjusted to 7.0, the volume was increased to 948 mL, and the medium was autoclaved. Following sterilization, 0.2 g MgSO4.7H2O, 0.01 g CaCl2.2H2O, and 0.5 mg FeSO4.7H2O were ad to the medium in a 1.8 mL volume followed by addition of 0.2 mL of Neidhardt's micronutrient solution. Neidhardt F. C., et al., “Culture medium for Enterobacteria,” J. Bacteriol. 119:736-746, (1974). Neidhardt's medium includes (per liter): 0.18 g (NH4)6(MO7)24-4H2O, 1.24 g H3BO3, 0.36 g CoCl2.6H2O, 0.12 g CuSO4 (anhydrous), 0.8 g MnCl2.4H2O, and 0.14 g ZnSO4.7H2O. A 50% glucose solution was prepared separately and sterile-filtered. Forty mL of glucose solution and 10 mL of 1 M 3-Morpholinopropanesulfonic acid (“MOPS”) buffer were added to the base medium (950 mL) for a 1 L final volume.
Conditions for the treatments included 250 rpm agitation throughout and 37° C. up to induction, then, 30° C. following induction. At 0.30-0.50 OD600 nm, induction of the plasmid genes was initiated. At induction, 1.0 mM IPTG, 0.5% L-arabinose, 0.5 mM pyridoxine hydrochloride, and 0.2 mLs of Balch's vitamins were added. Additions of 10 g/L L-tryptophan, 10 g/L sodium pyruvate, 0.04 mM pyridoxal-5′-phosphate (“PLP”) and 0.2% Tween® 20 (polyoxyethylene 20-sorbitan monolaurate) were made 3 hours following induction. Some treatments included 2.5 mM sodium decanoate addition at 3 hours following induction.
The strains used for the experiment included E. coli MG1655 : : aspC/proA/pProNdeDel together with the ramA gene from Enterobacter aerogenes cloned into the pUC19 vector (GenBank/EMBL accession number L09137). The control strain was E. coli MG1655 : : aspC/proA/pProNde along with the pUC19 vector. The ramA gene was amplified from E. aerogenes ATCC 13048 by using primers, 5′[…]3′ (SEQ ID NO. 22) and 5′[…]3′ (SEQ ID NO. 23), which introduced Sal I and BamH I sites at the end of the amplified fragment. The PCR fragment was cloned between the Sal I and BamH I sites of the vector pUC19 (GenBank/EMBL accession number L09137). For inoculum, the E. coli strains were grown overnight at 37° C. and 250 rpm in Luria-Bertani (“LB”) medium with 100 μg/mL ampicillin and 50 μg/mL kanamycin.
For the experimental treatments, Trp-1+glucose medium, a minimal medium that has been used for increased production of tryptophan in E. coli cells (Zeman et al. Folia Microbiol. 35:200-204, (1990)), was prepared as follows. To 800 mL nanopure water the following reagents were added: 2 g (NH4)2SO4 and 13.6 g KU2PO4. The pH was adjusted to 7.0, the volume was increased to 948 mL, and the medium was autoclaved. Following sterilization, 0.2 g MgSO4.7H2O, 0.01 g CaCl2.2H2O, and 0.5 mg FeSO4.7H2O were to the medium in a 1.8 mL volume followed by addition of 0.2 mL of Neidhardt's micronutrient solution. Neidhardt F. C., et al., “Culture medium for Enterobacteria,” J. Bacteriol. 119:736-746, (1974). […]

E. coli MG1655 ΔAcrAB = test: Monatin excretion with 2.5 mM sodium decanoate, E. coli MG1655 ΔAcrAB with or without marA (24, 30, 72 h); details: n = 2
[2] = E. coli MG1655::aspC proA pProNdedel pUC19 (control), n = 2
[3] = E. coli MG1655::aspC proA pProNdedel, ramA pUC19, n = 2
[4] = E. coli MG1655::aspC proA pProNdedel, robA pUC19, n = 2
[5] = ΔAcrAB AspC ProA pProNde del pUC19 (control)

CCCCCCCCCC(=O)[O-].[Na+] [sodium decanoate]
OD 600 nm at 19 hours [1]: 1.396
Monatin/dcw, 30 hours (E. coli MG1655; [2]): 4.66 mg/g
Monatin/dcw, 48 hours (E. coli MG1655; [2]): 4.31 mg/g
Monatin/dcw, 30 hours (E. coli MG1655; [3]): 3.69 mg/g
Monatin/dcw, 48 hours (E. coli MG1655; [3]): 13.90 mg/g
Monatin/dcw, 30 hours (E. coli MG1655; [4]): 6.91 mg/g
Monatin/dcw, 48 hours (E. coli MG1655; [4]): 25.62 mg/g
Mean monatin per dry cell weight, 24 (E. coli MG1655 ΔAcrAB; [5]): 22.2 mg/g
Mean monatin per dry cell weight, 30 (E. coli MG1655 ΔAcrAB; [5]): 20.6 mg/g
Mean monatin per dry cell weight, 72 (E. coli MG1655 ΔAcrAB; [5]): 62.6 mg/g
Mean monatin per dry cell weight, 24 (E. coli MG1655 ΔAcrAB; ΔAcrAB with marA insert): 54.6 mg/g
Mean monatin per dry cell weight, 30 (E. coli MG1655 ΔAcrAB; ΔAcrAB with marA insert): 56.0 mg/g
Mean monatin per dry cell weight, 72 (E. coli MG1655 ΔAcrAB; ΔAcrAB with marA insert): 209.0 mg/g
